The text below walks through data of BindingDB's records for doi:10.1021/jm960596u (National Cancer Institute-Bethesda, 1997).

The structures appear in SMILES notation. Where only a bound is given, the exact number is not on record here.

For test [1], the target named is T1, Integrase (Human immunodeficiency virus 1, UniProt Q7ZJM1). In words: Inhibitory concentration against HIV-1 integrase by strand transfer method.
In test [2] the target is T1, Integrase. In words: Inhibitory concentration to inhibit HIV-1 integrase by 3' -processing method.

T1 sequence (Q7ZJM1 whole entry): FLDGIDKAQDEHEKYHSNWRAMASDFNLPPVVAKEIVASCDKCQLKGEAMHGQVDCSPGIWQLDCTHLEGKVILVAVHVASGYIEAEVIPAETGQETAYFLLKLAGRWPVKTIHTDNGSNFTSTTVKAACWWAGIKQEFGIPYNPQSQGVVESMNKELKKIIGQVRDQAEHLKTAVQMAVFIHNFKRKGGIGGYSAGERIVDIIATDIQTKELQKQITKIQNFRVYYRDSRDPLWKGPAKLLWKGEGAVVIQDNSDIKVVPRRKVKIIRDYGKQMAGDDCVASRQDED

In the case of `Cc1[nH]n(-c2ccccc2)c(=O)c1N=Nc1ccc(S(N)(=O)=O)cc1`, the IC50 in test [1] and in test [2] was more than 200 µM each time.
Regarding `CCC(=O)CC=c1[nH]c2nnc(CCCCc3nnc4[nH]c(=CCC(=O)CC)c(=O)n34)n2c1=O` [1-(5-oxo-3-{4-[5-oxo-6-(3-oxopentyl)-5H-imidazo[2,1-c][1,2,4]triazol-3-yl]butyl}-5H-imidazo[2,1-c][1,2,4]triazol-6-yl)-3-pentanone], the IC50 in test [1] and in test [2] was more than 200 µM each time.
Take `CC1=C(N)C(=NNc2ccc(S(=O)(=O)Nc3cc(C)nc(C)n3)cc2)C(=O)C(C)C1=O` (stereo not given) [4-(2-Amino-3,5-dimethyl-4,6-dioxo-cyclohex-1-enylazo)-N-(2,6-dimethyl-pyrimidin-4-yl)-benzenesulfonamide]: the half-maximal inhibitory concentration (IC50) in test [1] and in test [2] was more than 200 µM in each case.
As for `CC1=C(N)C(=NNc2ccc(S(=O)(=O)Nc3scc(C)c3C)cc2)C(=O)C(C)C1=O` (stereo not given) [4-(2-Amino-3,5-dimethyl-4,6-dioxo-cyclohex-1-enylazo)-N-(3,4-dimethyl-thiophen-2-yl)-benzenesulfonamide], the IC50 in test [1] and in test [2] was more than 200 µM each time.
Take `CC1=C(N)C(=NNc2ccc(S(=O)(=O)Nc3nccc(C)n3)cc2)C(=O)C(C)C1=O` (stereo not given) [4-(2-Amino-3,5-dimethyl-4,6-dioxo-cyclohex-1-enylazo)-N-(4-methyl-pyrimidin-2-yl)-benzenesulfonamide]: the 50% inhibitory concentration (IC50) in test [1] and in test [2] was more than 200 µM each time.
On to `CC1=C(N)C(=NNc2ccc(S(=O)(=O)Nc3nnc(C)s3)cc2)C(=O)C(C)C1=O` (stereo not given) [4-(2-Amino-3,5-dimethyl-4,6-dioxo-cyclohex-1-enylazo)-N-(5-methyl-[1,3,4]thiadiazol-2-yl)-benzenesulfonamide], for which the IC50 in test [1] and in test [2] was more than 200 µM throughout.
As to `CC1=C(N)C(=NNc2ccc(S(=O)(=O)Nc3ccccn3)cc2)C(=O)C(C)C1=O` (stereo not given) [4-(2-Amino-3,5-dimethyl-4,6-dioxo-cyclohex-1-enylazo)-N-pyridin-2-yl-benzenesulfonamide], the IC50 in test [1] and in test [2] was more than 200 µM in each case.
As for `CC1=C(N)C(=NNc2ccc(S(=O)(=O)Nc3ncccn3)cc2)C(=O)C(C)C1=O` (stereo not given) [4-(2-Amino-3,5-dimethyl-4,6-dioxo-cyclohex-1-enylazo)-N-pyrimidin-2-yl-benzenesulfonamide], the IC50 in test [1] and in test [2] was more than 200 µM throughout.
Take `CC1=C(N)C(=NNc2ccc(S(=O)(=O)Nc3nccs3)cc2)C(=O)C(C)C1=O` (stereo not given) [4-(2-Amino-3,5-dimethyl-4,6-dioxo-cyclohex-1-enylazo)-N-thiazol-2-yl-benzenesulfonamide]: the concentration for half-maximal inhibition (IC50) in test [1] and in test [2] was more than 200 µM each time.
On to `Cc1[nH]n(-c2ccccc2)c(=O)c1N=Nc1ccc(S(=O)(=O)Nc2ccccn2)cc1` [4-(3-Methyl-5-oxo-1-phenyl-4,5-dihydro-1H-pyrazol-4-ylazo)-N-pyridin-2-yl-benzenesulfonamide], for which the IC50 in test [1] and in test [2] was more than 200 µM throughout.
Regarding `Cc1[nH]n(-c2ccccc2)c(=O)c1N=Nc1ccc(S(=O)(=O)Nc2ncccn2)cc1` [4-(3-Methyl-5-oxo-1-phenyl-4,5-dihydro-1H-pyrazol-4-ylazo)-N-pyrimidin-2-yl-benzenesulfonamide], the IC50 in test [1] and in test [2] was more than 200 µM in each case.
For the molecule `NS(=O)(=O)c1ccc(NN=C2Sc3nc4ccccc4n3C2=O)cc1` [4-(3-Oxo-2,3-dihydro-benzo[4,5]imidazo[2,1-b]thiazol-2-ylazo)-benzenesulfonamide], the IC50 in test [1] and in test [2] was more than 200 µM each time.
`NS(=O)(=O)c1ccc(N=Cc2c(O)n(-c3ccccc3)n(-c3ccccc3)c2=O)cc1` [4-[(3,5-Dioxo-1,2-diphenyl-pyrazolidin-4-ylidenemethyl)-amino]-benzenesulfonamide]: the IC50 in test [1] and in test [2] was more than 200 µM each time.
Consider `NS(=O)(=O)c1ccc(N=Nc2c(O)n(-c3ccccc3)n(-c3ccccc3)c2=O)cc1` [4-[N'-(3,5-Dioxo-1,2-diphenyl-pyrazolidin-4-ylidene)-hydrazino]-benzenesulfonamide], for which the IC50 in test [1] and in test [2] was more than 200 µM in each case.
In the case of `Cc1cc(NS(=O)(=O)c2ccc(N=Nc3c(C)[nH]n(-c4ccccc4)c3=O)cc2)nc(C)n1` [N-(2,6-Dimethyl-pyrimidin-4-yl)-4-(3-methyl-5-oxo-1-phenyl-4,5-dihydro-1H-pyrazol-4-ylazo)-benzenesulfonamide], the half-inhibitory concentration (IC50) in test [1] and in test [2] was more than 200 µM throughout.

The IC50 is the concentration that gives 50% inhibition. Lower therefore signals greater potency in that assay.
